Laboratory results: patent US7462600B2, “Macrolides” (Pfizer Inc, priority 2004, dated 2008)
Converted amounts (≈) assume the structure as drawn.

How the values were obtained:
Format in all cases: cell-based
[1] = system: Streptococcus pyogenes 1079; assay: MIC, microtiter broth dilution (NCCLS M100-S14), S. pyogenes 1079 (ermB); conditions: S. pyogenes 1079 (ermB)
How it was run: (§1)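 Steps: dissolve compound in DMSO to 40 mg/ml stock; dilute in broth across microtiter trays; inoculate strains; record MIC per NCCLS M100-S14.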

[2] = system: Streptococcus pneumoniae 1016; assay: MIC, microtiter broth dilution (NCCLS M100-S14), S. pneumoniae 1016 (susceptible); conditions: S. pneumoniae 1016 (susceptible)
How it was run: as §1

[3] = system: Streptococcus pneumoniae 1095; conditions: S. pneumoniae 1095 (ermB); microtiter broth dilution
How it was run: as §1

[4] = system: Streptococcus pneumoniae 1175; conditions: S. pneumoniae 1175 (mefA); microtiter broth dilution
How it was run: as §1

[5] = system: Haemophilus influenzae 1218; assay: MIC, microtiter broth dilution (NCCLS M100-S14), H. influenzae 1218 (susceptible); conditions: H. influenzae 1218 (susceptible)
How it was run: as §1

CCC1OC(=O)C(C)C(=O)C(C)C(OC2OC(C)CC(N(C)C)C2O)C(C)(OC)CC(C)C(=O)C(C)C2N(CC3CCCN3C(=O)c3cc4ncccc4[nH]3)C(=O)OC12C (centres unmarked) [10.42]
MIC S. pyogenes 1079 [1]: 64 µg/mL (≈ 76.2 µM)
MIC S. pneumo. 1016 [2]: <0.06 µg/mL
MIC S. pneumo. 1095 [3]: <0.06 µg/mL
MIC S. pneumo. 1175 [4]: <0.06 µg/mL
MIC H. influenzae 1218 [5]: 0.5 µg/mL (≈ 0.595 µM)

CCC1OC(=O)C(C)C(=O)C(C)C(OC2OC(C)CC(N(C)C)C2O)C(C)(OC)CC(C)C(=O)C(C)C2N(CC3CCCN3C(=O)c3cn4cccnc4n3)C(=O)OC12C (centres unmarked) [10.43]
MIC S. pyogenes 1079 [1]: >64.00 µg/mL
MIC S. pneumo. 1016 [2]: <0.06 µg/mL
MIC S. pneumo. 1095 [3]: <0.06 µg/mL
MIC S. pneumo. 1175 [4]: 0.25 µg/mL (≈ 0.297 µM)
MIC H. influenzae 1218 [5]: 1 µg/mL (≈ 1.19 µM)

CCC1OC(=O)C(C)C(=O)C(C)C(OC2OC(C)CC(N(C)C)C2O)C(C)(OC)CC(C)C(=O)C(C)C2N(CC3CCCN3C(=O)c3ccnc4ncsc34)C(=O)OC12C (centres unmarked) [10.44]
MIC S. pyogenes 1079 [1]: >64.00 µg/mL
MIC S. pneumo. 1016 [2]: <0.06 µg/mL
MIC S. pneumo. 1095 [3]: <0.06 µg/mL
MIC S. pneumo. 1175 [4]: 0.12 µg/mL (≈ 0.14 µM)
MIC H. influenzae 1218 [5]: 1 µg/mL (≈ 1.17 µM)

CCC1OC(=O)C(C)C(=O)C(C)C(OC2OC(C)CC(N(C)C)C2O)C(C)(OC)CC(C)C(=O)C(C)C2N(CC3CCCN3C(=O)c3cnn4ccccc34)C(=O)OC12C (centres unmarked) [10.45]
MIC S. pyogenes 1079 [1]: >64.00 µg/mL
MIC S. pneumo. 1016 [2]: <0.06 µg/mL
MIC S. pneumo. 1095 [3]: <0.06 µg/mL
MIC S. pneumo. 1175 [4]: <0.06 µg/mL
MIC H. influenzae 1218 [5]: 1 µg/mL (≈ 1.19 µM)

CCC1OC(=O)C(C)C(=O)C(C)C(OC2OC(C)CC(N(C)C)C2O)C(C)(OC)CC(C)C(=O)C(C)C2N(CC3CCCN3S(=O)(=O)c3cccc4cnccc34)C(=O)OC12C (centres unmarked) [10.46]
MIC S. pyogenes 1079 [1]: 64 µg/mL (≈ 72.1 µM)
MIC S. pneumo. 1016 [2]: <0.06 µg/mL
MIC S. pneumo. 1095 [3]: <0.06 µg/mL
MIC S. pneumo. 1175 [4]: <0.06 µg/mL
MIC H. influenzae 1218 [5]: 1 µg/mL (≈ 1.13 µM)

CCC1OC(=O)C(C)C(=O)C(C)C(OC2OC(C)CC(N(C)C)C2O)C(C)(OC)CC(C)C(=O)C(C)C2N(CC3CCCN3S(=O)(=O)c3cccc4cccnc34)C(=O)OC12C (centres unmarked) [10.47]
MIC S. pyogenes 1079 [1]: 64 µg/mL (≈ 72.1 µM)
MIC S. pneumo. 1016 [2]: <0.06 µg/mL
MIC S. pneumo. 1095 [3]: 0.12 µg/mL (≈ 0.135 µM)
MIC S. pneumo. 1175 [4]: <0.06 µg/mL
MIC H. influenzae 1218 [5]: 2 µg/mL (≈ 2.25 µM)

CCC1OC(=O)C(C)C(=O)C(C)C(OC2OC(C)CC(N(C)C)C2O)C(C)(OC)CC(C)C(=O)C(C)C2N(CC3CCCN3C(=O)c3ccc(C)[nH]c3=O)C(=O)OC12C (centres unmarked) [10.48]
MIC S. pyogenes 1079 [1]: >64.00 µg/mL
MIC S. pneumo. 1016 [2]: <0.06 µg/mL
MIC S. pneumo. 1095 [3]: 4 µg/mL (≈ 4.81 µM)
MIC S. pneumo. 1175 [4]: 0.5 µg/mL (≈ 0.602 µM)
MIC H. influenzae 1218 [5]: 1 µg/mL (≈ 1.2 µM)

CCC1OC(=O)C(C)C(=O)C(C)C(OC2OC(C)CC(N(C)C)C2O)C(C)(OC)CC(C)C(=O)C(C)C2N(CC3CCCN3C(=O)c3ccc4cnccc4n3)C(=O)OC12C (centres unmarked) [10.49]
MIC S. pyogenes 1079 [1]: >64.00 µg/mL
MIC S. pneumo. 1016 [2]: <0.06 µg/mL
MIC S. pneumo. 1095 [3]: 2 µg/mL (≈ 2.35 µM)
MIC S. pneumo. 1175 [4]: 2 µg/mL (≈ 2.35 µM)
MIC H. influenzae 1218 [5]: 8 µg/mL (≈ 9.39 µM)

CCC1OC(=O)C(C)C(=O)C(C)C(OC2OC(C)CC(N(C)C)C2O)C(C)(OC)CC(C)C(=O)C(C)C2N(CC3CCCN3C(=O)c3ccnc4[nH]cnc34)C(=O)OC12C (centres unmarked) [10.50]
MIC S. pyogenes 1079 [1]: >64.00 µg/mL
MIC S. pneumo. 1016 [2]: <0.06 µg/mL
MIC S. pneumo. 1095 [3]: 0.5 µg/mL (≈ 0.595 µM)
MIC S. pneumo. 1175 [4]: 2 µg/mL (≈ 2.38 µM)
MIC H. influenzae 1218 [5]: 8 µg/mL (≈ 9.51 µM)

CCC1OC(=O)C(C)C(=O)C(C)C(OC2OC(C)CC(N(C)C)C2O)C(C)(OC)CC(C)C(=O)C(C)C2N(CC3CCCN3C(=O)c3cnn4cccnc34)C(=O)OC12C (centres unmarked) [10.51]
MIC S. pyogenes 1079 [1]: >64.00 µg/mL
MIC S. pneumo. 1016 [2]: <0.06 µg/mL
MIC S. pneumo. 1095 [3]: <0.06 µg/mL
MIC S. pneumo. 1175 [4]: 0.5 µg/mL (≈ 0.595 µM)
MIC H. influenzae 1218 [5]: 1 µg/mL (≈ 1.19 µM)

CCC1OC(=O)C(C)C(=O)C(C)C(OC2OC(C)CC(N(C)C)C2O)C(C)(OC)CC(C)C(=O)C(C)C2N(CC3CCCN3C(=O)c3cccc4[nH]cnc34)C(=O)OC12C (centres unmarked) [10.52]
MIC S. pyogenes 1079 [1]: 64 µg/mL (≈ 76.2 µM)
MIC S. pneumo. 1016 [2]: <0.06 µg/mL
MIC S. pneumo. 1095 [3]: <0.06 µg/mL
MIC S. pneumo. 1175 [4]: <0.06 µg/mL
MIC H. influenzae 1218 [5]: 0.25 µg/mL (≈ 0.298 µM)

CCC1OC(=O)C(C)C(=O)C(C)C(OC2OC(C)CC(N(C)C)C2O)C(C)(OC)CC(C)C(=O)C(C)C2N(CC3CCCN3C(=O)c3cc4ncccn4n3)C(=O)OC12C (centres unmarked) [10.53]
MIC S. pyogenes 1079 [1]: >64.00 µg/mL
MIC S. pneumo. 1016 [2]: <0.06 µg/mL
MIC S. pneumo. 1095 [3]: <0.06 µg/mL
MIC S. pneumo. 1175 [4]: 0.12 µg/mL (≈ 0.143 µM)
MIC H. influenzae 1218 [5]: 1 µg/mL (≈ 1.19 µM)

CCC1OC(=O)C(C)C(=O)C(C)C(OC2OC(C)CC(N(C)C)C2O)C(C)(OC)CC(C)C(=O)C(C)C2N(CC3CCCN3C(=O)c3cn4ccccc4n3)C(=O)OC12C (centres unmarked) [10.54]
MIC S. pyogenes 1079 [1]: 64 µg/mL (≈ 76.2 µM)
MIC S. pneumo. 1016 [2]: <0.06 µg/mL
MIC S. pneumo. 1095 [3]: <0.06 µg/mL
MIC S. pneumo. 1175 [4]: 0.25 µg/mL (≈ 0.298 µM)
MIC H. influenzae 1218 [5]: 1 µg/mL (≈ 1.19 µM)

CCC1OC(=O)C(C)C(=O)C(C)C(OC2OC(C)CC(N(C)C)C2O)C(C)(OC)CC(C)C(=O)C(C)C2N(CC3CCCN3C(=O)c3cc4cccnc4[nH]3)C(=O)OC12C (centres unmarked) [10.55]
MIC S. pyogenes 1079 [1]: 32 µg/mL (≈ 38.1 µM)
MIC S. pneumo. 1016 [2]: <0.06 µg/mL
MIC S. pneumo. 1095 [3]: <0.06 µg/mL
MIC S. pneumo. 1175 [4]: <0.06 µg/mL
MIC H. influenzae 1218 [5]: 1 µg/mL (≈ 1.19 µM)

CCC1OC(=O)C(C)C(=O)C(C)C(OC2OC(C)CC(N(C)C)C2O)C(C)(OC)CC(C)C(=O)C(C)C2N(CC3CCN(Cc4cnc5ccccc5c4)C3)C(=O)OC12C (centres unmarked) [11.03]
MIC S. pyogenes 1079 [1]: 64 µg/mL (≈ 76.5 µM)
MIC S. pneumo. 1016 [2]: <0.06 µg/mL
MIC S. pneumo. 1095 [3]: <0.06 µg/mL
MIC S. pneumo. 1175 [4]: 0.5 µg/mL (≈ 0.597 µM)
MIC H. influenzae 1218 [5]: 2 µg/mL (≈ 2.39 µM)

CCC1OC(=O)C(C)C(=O)C(C)C(OC2OC(C)CC(N(C)C)C2O)C(C)(OC)CC(C)C(=O)C(C)C2N(CC3CCN(Cc4ccc5ccccc5n4)C3)C(=O)OC12C (centres unmarked) [11.04]
MIC S. pyogenes 1079 [1]: 64 µg/mL (≈ 76.5 µM)
MIC S. pneumo. 1016 [2]: <0.06 µg/mL
MIC S. pneumo. 1095 [3]: <0.06 µg/mL
MIC S. pneumo. 1175 [4]: 0.12 µg/mL (≈ 0.143 µM)
MIC H. influenzae 1218 [5]: 1 µg/mL (≈ 1.19 µM)

CCC1OC(=O)C(C)C(=O)C(C)C(OC2OC(C)CC(N(C)C)C2O)C(C)(OC)CC(C)C(=O)C(C)C2N(CC3CCN(Cc4nc5ccccc5n4C)C3)C(=O)OC12C (centres unmarked) [11.06]
MIC S. pyogenes 1079 [1]: >64.00 µg/mL
MIC S. pneumo. 1016 [2]: <0.06 µg/mL
MIC S. pneumo. 1095 [3]: 2 µg/mL (≈ 2.38 µM)
MIC S. pneumo. 1175 [4]: 2 µg/mL (≈ 2.38 µM)
MIC H. influenzae 1218 [5]: 4 µg/mL (≈ 4.76 µM)

CCC1OC(=O)C(C)C(=O)C(C)C(OC2OC(C)CC(N(C)C)C2O)C(C)(OC)CC(C)C(=O)C(C)C2N(CC3CCN(Cc4ccc(OC)nc4)C3)C(=O)OC12C (centres unmarked) [11.07]
MIC S. pyogenes 1079 [1]: 16 µg/mL (≈ 19.6 µM)
MIC S. pneumo. 1016 [2]: <0.06 µg/mL
MIC S. pneumo. 1095 [3]: <0.06 µg/mL
MIC S. pneumo. 1175 [4]: 0.25 µg/mL (≈ 0.306 µM)
MIC H. influenzae 1218 [5]: 1 µg/mL (≈ 1.22 µM)

CCC1OC(=O)C(C)C(=O)C(C)C(OC2OC(C)CC(N(C)C)C2O)C(C)(OC)CC(C)C(=O)C(C)C2N(CC3CCN(Cc4cccc(OC)n4)C3)C(=O)OC12C (centres unmarked) [11.08]
MIC S. pyogenes 1079 [1]: >64.00 µg/mL
MIC S. pneumo. 1016 [2]: <0.06 µg/mL
MIC S. pneumo. 1095 [3]: <0.06 µg/mL
MIC S. pneumo. 1175 [4]: 0.25 µg/mL (≈ 0.306 µM)
MIC H. influenzae 1218 [5]: 0.5 µg/mL (≈ 0.612 µM)
